# According to paper PMC10362175, “Selenium-binding protein 1 (SELENBP1) is a copper-dependent thiol oxidase” (Redox Biology, 2023):
# How the values were obtained:
# Assay type in all cases: biochemical
# [1] = molecular target: T1, methionine gamma-lyase (MGL) (Brevibacterium aurantiacum, UniProt A0A2H1K3G9); assay: DTNB (Ellman's reagent) trapping of volatile thiol, […] nm; settings: HBS, 3 h
# T1 construct: gene BAUR9175_03070
# SELENBP1 = molecular target: T2, SELENBP1 (Homo sapiens, UniProt Q13228); assay: coupled MGL assay, H2S (lead acetate paper) and H2O2 (fluorometric); settings: Cu cofactor, HBS pH 7.4, 37 °C, 3 h
# T2 construct: Strep-tagged recombinant, E. coli BL21 or KRX, Strep-Tactin XT purified, 56 kDa
# T2 sequence (Q13228 2-472): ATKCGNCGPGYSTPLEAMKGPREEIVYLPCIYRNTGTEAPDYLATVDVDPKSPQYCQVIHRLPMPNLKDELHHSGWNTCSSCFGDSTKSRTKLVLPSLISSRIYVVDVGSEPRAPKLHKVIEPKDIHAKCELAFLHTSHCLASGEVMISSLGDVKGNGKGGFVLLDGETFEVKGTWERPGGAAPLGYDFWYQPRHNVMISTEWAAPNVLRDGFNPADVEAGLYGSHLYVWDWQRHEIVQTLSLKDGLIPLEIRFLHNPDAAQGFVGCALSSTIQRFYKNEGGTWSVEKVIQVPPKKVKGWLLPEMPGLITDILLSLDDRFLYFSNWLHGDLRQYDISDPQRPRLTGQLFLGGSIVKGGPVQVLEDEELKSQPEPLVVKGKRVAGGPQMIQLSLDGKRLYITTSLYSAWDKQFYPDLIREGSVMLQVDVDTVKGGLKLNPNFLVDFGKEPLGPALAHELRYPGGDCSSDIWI
# SEMO-1 = molecular target: T3, SEMO-1 (Caenorhabditis elegans, UniProt Q9XXF9); assay: as above; settings: Cu cofactor; methanethiol generated in situ from L-methionine; HBS pH 7.4; 37 °C, 3 h
# T3 construct: Strep-tagged recombinant, E. coli BL21 or KRX, Strep-Tactin XT purified
# T3 sequence (Q9XXF9 entry or part of it): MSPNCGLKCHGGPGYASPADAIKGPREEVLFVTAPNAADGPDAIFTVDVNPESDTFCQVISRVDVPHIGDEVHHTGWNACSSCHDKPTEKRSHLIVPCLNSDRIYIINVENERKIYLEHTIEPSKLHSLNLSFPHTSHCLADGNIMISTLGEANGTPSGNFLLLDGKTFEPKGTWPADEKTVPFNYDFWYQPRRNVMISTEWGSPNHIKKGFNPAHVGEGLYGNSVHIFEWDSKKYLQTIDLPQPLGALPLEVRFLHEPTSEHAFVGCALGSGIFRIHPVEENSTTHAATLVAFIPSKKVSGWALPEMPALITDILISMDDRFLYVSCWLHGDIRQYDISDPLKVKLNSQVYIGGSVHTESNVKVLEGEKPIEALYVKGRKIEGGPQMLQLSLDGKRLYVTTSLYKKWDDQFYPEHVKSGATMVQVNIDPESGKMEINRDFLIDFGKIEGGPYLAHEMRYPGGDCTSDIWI
# T1 sequence (A0A2H1K3G9 14-406 limits assumed): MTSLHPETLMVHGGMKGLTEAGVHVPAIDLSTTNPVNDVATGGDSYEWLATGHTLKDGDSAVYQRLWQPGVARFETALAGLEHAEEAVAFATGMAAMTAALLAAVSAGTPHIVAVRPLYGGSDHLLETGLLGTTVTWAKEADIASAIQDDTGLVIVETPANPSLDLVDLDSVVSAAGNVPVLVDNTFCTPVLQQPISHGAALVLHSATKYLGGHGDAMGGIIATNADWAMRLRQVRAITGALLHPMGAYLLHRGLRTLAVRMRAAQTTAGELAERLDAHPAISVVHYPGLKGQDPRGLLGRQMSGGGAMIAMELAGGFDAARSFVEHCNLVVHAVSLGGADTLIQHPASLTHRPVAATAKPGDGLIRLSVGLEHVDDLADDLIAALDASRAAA
compound,measurement,setting,value
N[C@@H](CCS)C(=O)O [L-homocysteine],"DTNB (Ellman's reagent) trapping of volatile thiol, 412 nm",[1]; product H2S,"ethanethiol, methaneselenol and H2S were generated by MGL-mediated elimination from their precursor amino acids"
CSCC[C@H](N)C(=O)O [L-methionine],"DTNB (Ellman's reagent) trapping of volatile thiol, 412 nm",[1]; product methanethiol,MGL-mediated generation of methanethiol from methionine served as positive control
CCS [ethanethiol],"coupled MGL assay, H2S (lead acetate paper) and H2O2 (fluorometric)",SELENBP1; ethanethiol generated in situ from DL-ethionine,methanethiol and ethanethiol are by far the best SELENBP1 substrates
CS [methanethiol],"coupled MGL assay, H2S (lead acetate paper) and H2O2 (fluorometric)",SELENBP1; methanethiol generated in situ from L-methionine,methanethiol and ethanethiol are by far the best SELENBP1 substrates
same,"coupled MGL assay, H2S (lead acetate paper) and H2O2 (fluorometric)",SEMO-1,only the addition of cupric ions was capable of regenerating and even enhancing MTO activity
